The record followed here is ChEMBL document CHEMBL2390858, “Design, synthesis and anti-tuberculosis activity of 1-adamantyl-3-heteroaryl ureas with improved in vitro pharmacokinetic properties” (Bioorg Med Chem, 2013).

Converted amounts (≈) assume the structure as drawn.

Data set [1] has as its target T1, Bifunctional epoxide hydrolase 2 (Homo sapiens, UniProt P34913).
T1 sequence (P34913 whole entry): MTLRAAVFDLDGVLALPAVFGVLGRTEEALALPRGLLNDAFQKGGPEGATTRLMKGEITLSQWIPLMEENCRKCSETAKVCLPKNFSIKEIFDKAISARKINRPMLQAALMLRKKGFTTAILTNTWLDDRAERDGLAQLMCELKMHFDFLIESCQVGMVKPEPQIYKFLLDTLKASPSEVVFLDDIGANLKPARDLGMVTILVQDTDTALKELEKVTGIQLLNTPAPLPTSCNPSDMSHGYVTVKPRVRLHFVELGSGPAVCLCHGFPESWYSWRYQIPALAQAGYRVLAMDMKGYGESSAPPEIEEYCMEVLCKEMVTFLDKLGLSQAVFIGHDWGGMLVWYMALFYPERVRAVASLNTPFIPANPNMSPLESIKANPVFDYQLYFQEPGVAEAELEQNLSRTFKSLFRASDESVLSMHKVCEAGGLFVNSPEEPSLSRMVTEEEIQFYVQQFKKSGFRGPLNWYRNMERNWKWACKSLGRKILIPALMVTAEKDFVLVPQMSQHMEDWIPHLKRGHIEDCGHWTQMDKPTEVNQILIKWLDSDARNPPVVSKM

For data set [2] the following is noted: buffer, 18 h, pH 7.4.
Data set [3] relates to Pseudomonas aeruginosa. In words: microbe, parasite or virus in culture.
Data set [4] relates to Proteus vulgaris. In words: microbe, parasite or virus in culture.
For data set [5], the system named is Proteus mirabilis. In words: microbe, parasite or virus in culture.
The test system of data set [6] is Klebsiella pneumoniae. In words: microbe, parasite or virus in culture.
The test system of data set [7] is Escherichia coli. In words: microbe, parasite or virus in culture. The following applies: K-12.
Data set [8] deals with Acinetobacter. In words: microbe, parasite or virus in culture.
Data set [9] has as its system Streptococcus pneumoniae. In words: microbe, parasite or virus in culture.
Data set [10] relates to Streptococcus pyogenes. In words: microbe, parasite or virus in culture.
The subject of data set [11] is Bacillus anthracis. In words: microbe, parasite or virus in culture. The following applies: Sterne.
The test system of data set [12] is Burkholderia cepacia. In words: microbe, parasite or virus in culture.
In data set [13] the test system is Bacillus subtilis. In words: microbe, parasite or virus in culture.
The test system of data set [14] is Staphylococcus aureus. In words: microbe, parasite or virus in culture. The note with it: NRS70.
The test system of data set [15] is Staphylococcus aureus. In words: microbe, parasite or virus in culture. The following applies: ATCC 29213.
Data set [16] concerns Enterococcus faecalis. In words: microbe, parasite or virus in culture.
Data set [17] concerns Mycobacterium tuberculosis. In words: microbe, parasite or virus in culture. The note with it: H37Rv, 168 h.

As for `O=C(Nc1ccccn1)NC12CC3CC(CC(C3)C1)C2`, in data set [1], inhibition was half-maximal at 1500 nM (IC50). In [2], this molecule displayed a solubility of 1.4 µg/mL (≈ 5.16 µM). The MIC in data set [3], in [4], in [5], in [6], in data set [7] and in data set [8] was more than 200 µg/mL in each case. The MIC in data set [9], in data set [10] and in data set [11] was more than 200 µg/mL throughout.
In [1], `Cc1noc(NC(=O)NC23CC4CC(CC(C4)C2)C3)c1C` yielded an IC50 of 20 nM. In data set [2], this molecule registered a solubility of 5.7 µg/mL (≈ 19.7 µM). The MIC in data set [3], in [4], in data set [5], in data set [6], in data set [7] and in data set [12] was more than 200 µg/mL throughout. For the same molecule, the MIC in data set [13], in [9], in [10], in [14], in [15] and in data set [16] was more than 200 µg/mL in each case. The MIC in [17] was 100 µg/mL (≈ 346 µM).
Molecule `O=C(Nc1nnc(C2CCC2)o1)NC12CC3CC(CC(C3)C1)C2` gave an IC50 in data set [1] of 241 nM. This molecule showed a solubility in data set [2] of 10.5 µg/mL (≈ 33.2 µM). The MIC in data set [3], in data set [4], in data set [5], in data set [6], in data set [7] and in data set [12] was more than 200 µg/mL in each case. In addition, the MIC is 50 µg/mL (≈ 158 µM) in data set [13]; more than 200 µg/mL in data set [8]; 100 µg/mL (≈ 316 µM) in data set [9]; 100 µg/mL (≈ 316 µM) in data set [10]; 50 µg/mL (≈ 158 µM) in data set [14]; 50 µg/mL (≈ 158 µM) in [15]. For the same molecule, the MIC stood at 100 µg/mL (≈ 316 µM) in data set [16], 25 µg/mL (≈ 79 µM) in [11] and 12.5 µg/mL (≈ 39.5 µM) in [17].
`O=C(Nc1nnc(-c2cccs2)o1)NC12CC3CC(CC(C3)C1)C2` had a 50% inhibitory concentration (IC50) in data set [1] of 1570 nM. Moreover, the solubility in data set [2] amounted to 2.2 µg/mL (≈ 6.39 µM). The MIC in data set [3], in data set [4], in [5], in data set [6], in data set [7] and in data set [12] was more than 200 µg/mL throughout. Also, the MIC in data set [13], in data set [8], in data set [9], in data set [10], in data set [14] and in [15] was more than 200 µg/mL throughout. The MIC was more than 200 µg/mL in data set [11] and 100 µg/mL (≈ 290 µM) in [17].
Molecule `CCn1ccc(NC(=O)NC23CC4CC(CC(C4)C2)C3)n1` came in with a concentration for half-maximal inhibition (IC50) in data set [1] of 884 nM. Moreover, the solubility in [2] is 10.5 µg/mL (≈ 36.4 µM). The MIC in data set [3], in [4], in data set [5], in data set [6], in [7] and in [12] was more than 200 µg/mL each time. Moreover, the MIC in data set [13] was 200 µg/mL (≈ 693 µM); in data set [8] it was more than 200 µg/mL; in data set [9], 200 µg/mL (≈ 693 µM); in data set [10] it was 0.78 µg/mL (≈ 2.7 µM); in data set [14], 200 µg/mL (≈ 693 µM); in [15], more than 200 µg/mL. Moreover, the results for the MIC in [16], in data set [11] and in data set [17] were more than 200 µg/mL, 100 µg/mL (≈ 347 µM) and 25 µg/mL (≈ 86.7 µM), respectively.
Molecule `CCn1nc(NC(=O)NC23CC4CC(CC(C4)C2)C3)cc1C` returned a half-inhibitory concentration (IC50) in data set [1] of 2510 nM. For the same molecule, in data set [2], the solubility came out at 13.2 µg/mL (≈ 43.6 µM). Moreover, the MIC in [3], in data set [4], in data set [5], in data set [6], in data set [7] and in [12] was more than 200 µg/mL in each case. For the same molecule, the MIC in [13], in [8], in data set [9], in data set [10], in data set [14] and in data set [15] was more than 200 µg/mL each time. For the same molecule, the figures for the MIC in [16], in [11] and in data set [17] were more than 200 µg/mL, more than 200 µg/mL and 12.5 µg/mL (≈ 41.3 µM), respectively.
In data set [1], `Cn1cc(NC(=O)NC23CC4CC(CC(C4)C2)C3)cn1` returned an IC50 of 488 nM. The solubility in [2] turned out to be 41.1 µg/mL (≈ 150 µM). In addition, the MIC in [3], in data set [4], in data set [5], in [6], in data set [7] and in data set [12] was more than 200 µg/mL throughout. Further, the MIC in data set [13], in data set [8], in data set [9], in data set [10], in data set [14] and in data set [15] was more than 200 µg/mL in each case. In addition, the figures for the MIC in data set [16], in [11] and in [17] were more than 200 µg/mL, more than 200 µg/mL and 50 µg/mL (≈ 182 µM), respectively.
Turning to `O=C(Nc1ncco1)NC1C2CC3CC(C2)CC1C3` (configuration not stated), in data set [1], it took 46 nM to reach half-maximal inhibition (IC50). In addition, in data set [2], the solubility stood at 14.9 µg/mL (≈ 57 µM). The MIC was more than 200 µg/mL in data set [3]; more than 200 µg/mL in data set [4]; more than 200 µg/mL in data set [5]; more than 200 µg/mL in data set [6]; more than 200 µg/mL in data set [7]; 6.25 µg/mL (≈ 23.9 µM) in data set [12]. The MIC in data set [13] is more than 200 µg/mL; in data set [8] it was more than 200 µg/mL; in data set [9], more than 200 µg/mL; in data set [10] it was more than 200 µg/mL; in data set [14], 200 µg/mL (≈ 765 µM); in data set [15] it was more than 200 µg/mL. The MIC in data set [16] was more than 200 µg/mL; in [11] it was more than 200 µg/mL; in data set [17], 12.5 µg/mL (≈ 47.8 µM).
In [1], `O=C(Nc1ccc(S(=O)(=O)Nc2ccc(Cl)nn2)cc1)NC12CC3CC(CC(C3)C1)C2` showed a half-inhibitory concentration (IC50) of 19 nM. In data set [2], the solubility is 20.7 µg/mL (≈ 44.8 µM). Further, the MIC in [3] was more than 200 µg/mL; in data set [4], more than 200 µg/mL; in data set [5], 100 µg/mL (≈ 216 µM); in data set [6], more than 200 µg/mL; in [7], more than 200 µg/mL; in [12], 100 µg/mL (≈ 216 µM). The MIC in [13] is more than 200 µg/mL; in data set [8], more than 200 µg/mL; in [9], 100 µg/mL (≈ 216 µM); in [10], more than 200 µg/mL; in data set [15] it was 50 µg/mL (≈ 108 µM); in data set [16] it was 100 µg/mL (≈ 216 µM). In data set [11], the MIC amounted to 1.56 µg/mL (≈ 3.38 µM).
The molecule `Cc1onc(NC(=O)NC23CC4CC(CC(C4)C2)C3)c1Br` returned a 50% inhibitory concentration (IC50) in [1] of 0.8 nM. The molecule further showed a solubility in data set [2] of 0.1 µg/mL (≈ 0.282 µM). In addition, the MIC is more than 200 µg/mL in [3]; more than 200 µg/mL in [4]; more than 200 µg/mL in [5]; more than 200 µg/mL in [6]; 50 µg/mL (≈ 141 µM) in [7]; more than 200 µg/mL in [13]. Further, the MIC in data set [8] is more than 200 µg/mL; in data set [9] it was more than 200 µg/mL; in data set [10], more than 200 µg/mL; in data set [14] it was 200 µg/mL (≈ 565 µM); in data set [15], 50 µg/mL (≈ 141 µM); in data set [11], more than 200 µg/mL. This molecule yielded an MIC in [17] of 100 µg/mL (≈ 282 µM).
`Cc1noc(NC(=O)NC23CC4CC(CC(C4)C2)C3)c1Cl`: half-maximal inhibition in [1] (IC50) was put at 0.5 nM. The molecule further displayed a solubility in [2] of 1.5 µg/mL (≈ 4.84 µM). For the same molecule, the MIC in [3], in [4], in data set [5], in data set [6], in [7] and in data set [12] was more than 200 µg/mL in each case. The MIC in data set [13], in data set [9], in data set [10], in data set [14], in data set [15] and in [16] was more than 200 µg/mL each time. The same molecule registered an MIC in [17] of 100 µg/mL (≈ 323 µM).

One may read the IC50 as the concentration needed to halve the response being measured. A low value points to inhibition by little substance. What is called solubility is how much of the substance goes into solution per volume. Low values mean a poorly soluble substance, high ones a readily soluble substance.
